# From patent US8501433B2, “Solvent for chromogenic substrate solution” (Pierce Biotechnology, Inc., priority 2002, dated 2013)
# Assay: Dissolution of X-gal (and antibiotics) in non-toxic solvents
# Assay type: physicochemical
# Conditions: non-toxic solvent solutions of the invention
# Description: A combination of essential oil was extracted with chloroform in order to remove part of the oil phase, and create a semi-precipitated emulsion. For example, 20 ml of citrus extract, pine terpenoids, limonene oils and linseed oil was mixed with 20 ml of Chloroform by vigorously shaking in a 50 ml falcon tube. The resulting mix was let stand for approximately one day, and then the upper phase was transferred to a 15 ml falcon tube.
row,SMILES,dissolution in the same solutions as X-gal
1,O=C(N[C@H](CO)[C@H](O)c1ccc([N+](=O)[O-])cc1)C(Cl)Cl [Chloramphenicol],stable dissolution
2,CC1(C)S[C@@H]2[C@H](NC(=O)[C@H](N)c3ccccc3)C(=O)N2[C@H]1C(=O)O [Ampicillin],stable dissolution
3,CN(C)[C@@H]1C(=O)C(C(N)=O)=C(O)[C@@]2(O)C(=O)C3=C(O)c4c(O)cccc4[C@@](C)(O)[C@H]3C[C@@H]12 [Tetracyclin],stable dissolution
